Where two headings read alike, the source gives them in different places.
Experiment: Retention of THC in the mouth after smoking marijuana: THC in saliva and tongue mucus by quantitative GC/MS
Assay type: in vivo, human
Conditions: for concentration at 5 min / concentration at 2 h / concentration at 6 h / concentration at 24 h: human, inhaled; for concentration at 5 min: 5 minutes post smoking 0.2 g of marijuana; for concentration at 2 h: 2 hours post smoking 0.2 g of marijuana; for concentration at 6 h: 6 hours post smoking 0.2 g of marijuana; for concentration at 24 h: 24 hours post smoking 0.2 g of marijuana
From the text: 0.2 grams (g) of marijuana was smoked by a test subject. Mucosal surface samples and saliva were collected at different time intervals by scraping the top side of the tongue a polypropylene card having a width×length×thickness of about 2 inches×about 3 inches×about 0.04 inches, using the about 2 inch edge of the card as an abrasive. The mucus specimens were dripped into a glass vial for further analysis. Saliva specimens were collected at the same times by directly expectorating saliva into glass vials.
The specimens were analyzed by a quantitative GC/MS method for the detection of THC.

[1] = saliva (expectorated), read-out: THC Concentration, Saliva
[2] = tongue mucus (mucosal scrapings), mucosal scrapings from the top of the tongue, read-out: THC Concentration, Mucus

CCCCCc1cc(O)c2c(c1)OC(C)(C)[C@@H]1CCC(C)=C[C@@H]21 [THC, Tetrahydrocannabinol]
concentration at 5 min [1]: 0.115 µg/mL
concentration at 2 h [1]: 0.016 µg/mL
concentration at 6 h [1]: 0.011 µg/mL
concentration at 24 h [1]: 0.0021 µg/mL
concentration at 5 min [2]: 0.587 µg/mL
concentration at 2 h [2]: 0.412 µg/mL
concentration at 6 h [2]: 0.123 µg/mL
concentration at 24 h [2]: 0.044 µg/mL
Retention of THC in mucus specimen compared with saliva (mucus vs saliva, 5 minutes to 24 hours after smoking 0.2 g of marijuana): significantly higher concentration and for longer time than in saliva
